Literature values as cited in patent publication US20110020272A1, “COMBINATION THERAPY FOR TREATING HEPATITIS VIRAL INFECTION” (priority 2009, published 2011).
Like-named read-outs stand apart in the source and are kept apart here.

Legend:
HCV genotype 1 [1] = settings: cited from earlier work; for reduction in HCV RNA levels: after 8 days
HCV genotype 1 [2] = settings: cited from earlier work; for week 4 rapid virologic response rate: PEG-interferon alpha-2a
HCV = settings: cited from earlier work; for median HCV RNA decline: experienced patients

Structure (SMILES): COc1ccc2c(O[C@@H]3C[C@H]4C(=O)N[C@]5(C(=O)NS(=O)(=O)C6CC6)C[C@H]5/C=C\CCCCN(C)C(=O)[C@@H]4C3)cc(-c3nc(C(C)C)cs3)nc2c1C [TMC435]
- antiviral activity (HCV RNA decline) (HCV genotype 1 [1]; 4 weeks, TMC435 with PEG-interferon-alpha2a/ribavirin vs control arms, treatment-experienced): 4.3-5.3 log 10 IU/mL

Structure (SMILES): CC(C)C(=O)OC[C@H]1O[C@@H](n2ccc(N)nc2=O)[C@](C)(F)[C@@H]1OC(=O)C(C)C [R7128]
- week 4 rapid virologic response rate (HCV genotype 1 [2]; ribavirin plus R7128 500 mg twice daily, treatment naïve): 30%
- week 4 rapid virologic response rate (HCV genotype 1 [2]; ribavirin plus R7128 1,500 mg twice daily, treatment naïve): 85%
- mean viral decline (HCV; non responders, 1,500 mg twice daily, after 14 days): 2.7 log 10 IU/mL

Structure (SMILES): CC(C)[C@H](N)C(=O)O[C@@H]1[C@@H](CO)O[C@@H](n2ccc(N)nc2=O)[C@]1(C)O [Valopicitabine]
- mean HCV-RNA decline (HCV genotype 1 [1]; combination with interferon alpha, after 36 weeks, treatment naïve): 3.75-4.41 log 10 IU/mL
- mean HCV-RNA decline (HCV genotype 1 [1]; monotherapy, after 14 days, prior non response to interferon based treatment): 0.15-1.21 log 10 IU/mL

Structure (SMILES): CC(C)C(=O)OC[C@@]1(N=[N+]=[N-])O[C@@H](n2ccc(N)nc2=O)[C@H](OC(=O)C(C)C)[C@@H]1OC(=O)C(C)C [R1626]
- virologic response rates (HCV genotype 1 [2]; after 48 weeks (4 weeks R1626 plus PEG-interferon alpha-2a with or without ribavirin, then 44 weeks PEG-interferon alpha-2a plus ribavirin) vs control arm): 52-84%
- end of treatment response (HCV genotype 1 [2]; non-ribavirin arm): 52-66%
- end of treatment response (HCV genotype 1 [2]; ribavirin arm): 84%
- mean maximal viral load reduction from baseline (HCV; combination with PEG-IFN and RbV for 4 weeks): 5.2 log 10 IU/mL

Structure (SMILES): CNC(=O)c1c(-c2ccc(F)cc2)oc2cc(N(CCO)S(C)(=O)=O)c(C3CC3)cc12 [HCV-796]
- mean viral reduction (HCV; after 14 days, HCV-796 plus PEG-interferon alpha-2b vs PEG-interferon alpha-2b alone): 3.3-3.5 log 10 IU/mL
- mean HCV RNA reduction (HCV; monotherapy, maximum effect after 4 days): 1.4 log 10 IU/mL

Structure (SMILES): CCc1cc(CC[C@]2(C3CCCC3)CC(O)=C(Cc3nc4nc(C)cc(C)n4n3)C(=O)O2)cc(CC)n1 [Filibuvir]
- rapid virologic response rate (HCV genotype 1 [2]; triple therapy with PEG-interferon alpha-2a and ribavirin, treatment naïve): 60-75%

Structure (SMILES): C/C=C/C[C@@H](C)[C@@H](O)[C@H]1C(=O)N[C@@H](CC)C(=O)N(C)[C@H](C)C(=O)N(CC)[C@@H](C(C)C)C(=O)N[C@@H](C(C)C)C(=O)N(C)[C@@H](CC(C)C)C(=O)N[C@@H](C)C(=O)N[C@H](C)C(=O)N(C)[C@@H](CC(C)C)C(=O)N(C)[C@@H](CC(C)C)C(=O)N(C)[C@@H](C(C)C)C(=O)N1C [DEBIO-025]
- antiviral activity (HCV genotype 1 [1]; monotherapy, null responders): no antiviral activity was observed
- HCV RNA decline (HCV genotype 1 [1]; triple combination with PEG-interferon alpha-2a and ribavirin, after 29 days, null responders, different dosing arms): 0.88-2.38 log 10 IU/mL

Structure (SMILES): CCCC[C@H](NC(=O)[C@@H]1[C@@H]2[C@H](CN1C(=O)[C@@H](NC(=O)NC1(CS(=O)(=O)C(C)(C)C)CCCCC1)C(C)(C)C)C2(C)C)C(=O)C(=O)NC1CC1 [SCH 900518]
- reduction in HCV RNA levels (HCV genotype 1 [1]; 400 mg twice/day plus PEG-interferon alpha-2a/ribavirin plus ritonavir 100 mg/d): 4.01 log 10 IU/mL
- reduction in HCV RNA levels (HCV genotype 1 [1]; 800 mg thrice/day plus PEG-interferon alpha-2a/ribavirin): 4.5 log 10 IU/mL

Structure (SMILES): C=C[C@@H]1C[C@]1(NC(=O)[C@@H]1C[C@@H](Oc2cc(-c3csc(NC(=O)C(C)C)n3)nc3c(Br)c(OC)ccc23)CN1C(=O)[C@@H](NC(=O)OC1CCCC1)C(C)(C)C)C(=O)O [BI 201335]
- median HCV RNA decline (HCV; combination with PEG-interferon alpha-2a/ribavirin for 28 days): 4.8-5.3 log 10 IU/ml
- median HCV RNA decline (HCV; monotherapy for 14 days): 3-4.2 log 10 IU/mL

Structure (SMILES): C/C=C/C[C@@H](C)[C@@H](O)[C@H]1C(=O)N[C@@H](CC)C(=O)N(C)CC(=O)N(C)[C@@H]([C@@H](C)CC)C(=O)N[C@@H](C(C)C)C(=O)N(C)[C@@H](CC(C)C)C(=O)N[C@@H](C)C(=O)N[C@H](C)C(=O)N(C)[C@@H](CC(C)C)C(=O)N(C)[C@@H](CC(C)C)C(=O)N(C)[C@@H](C(C)C)C(=O)N1C [NIM811]
- mean HCV RNA decline (HCV genotype 1 [1]; combination with PEG-interferon alpha-2a, after 14 days, previous relapse): 2.78 log 10 IU/mL
